The source of these data is patent US3966718A, “7-β-Acylamino-ceph-3-ems and salts and esters therefor” (Beecham Group Limited, priority 1973, dated 1976).

In brackets after ≈: the same amount, converted by molar mass. Structures can show the parent of a compound that is named as a salt. Where two headings read alike, the source gives them in different places.

Format in all cases: cell-based
One assay relates to Staph. aureus Russell. Briefly: MIC on (nutrient) agar. Particulars: Staphylococcus aureus, read-out: minimum inhibitory concentration (MIC).
Another assay has as its system β-Haemolytic Strep. CN10. The assay is described as follows: MIC on (nutrient) agar. Particulars: read-out: minimum inhibitory concentration (MIC).
A further assay concerns Strep. pneumoniae CN33. Briefly: MIC on (nutrient) agar. Particulars: Streptococcus pneumoniae, read-out: minimum inhibitory concentration (MIC).
Another assay concerns Staph. aureus Oxford. The assay is described as follows: MIC on (nutrient) agar. Particulars: Staphylococcus aureus, read-out: minimum inhibitory concentration (MIC).
The subject of another assay is B. subtilis. Briefly: MIC on (nutrient) agar. Particulars: Bacillus subtilis, read-out: minimum inhibitory concentration (MIC).
Another assay concerns Salmonella typhi. Briefly: MIC on nutrient agar. Particulars: Salmonella enterica, read-out: minimum inhibitory concentration (MIC).
The subject of a further assay is E. coli NCTC 10418. The assay is described as follows: MIC on nutrient agar. Particulars: Escherichia coli, NCTC10418; E. coli NCTC 10418, nutrient agar; read-out: minimum inhibitory concentration (MIC).
The next assay has as its system Klebsiella aerogenes A. Briefly: MIC on nutrient agar. Particulars: read-out: minimum inhibitory concentration (MIC).
Another assay deals with Shigella sonnei. Briefly: MIC on nutrient agar. Particulars: read-out: minimum inhibitory concentration (MIC).
The next assay has as its system Proteus mirabilis C977. The assay is described as follows: MIC on nutrient agar. Particulars: Proteus mirabilis C977, nutrient agar; read-out: minimum inhibitory concentration (MIC).
The mark [1] stands for this setting: Klebsiella aerogenes A, nutrient agar.

Consider `O=C(Cc1cccs1)N[C@@H]1C(=O)N2C(C(=O)O)=C(Cc3cccnc3)CS[C@H]12` [Example 1, 3-(3-pyridylmethyl)-7β-(2-thienylacetamido)-3-cephem-4-carboxylic acid trifluoroacetate salt], for which the MIC worked out at 10 µg/mL with Staph. aureus Russell (Staph. aureus Russell, agar); 0.1 µg/mL in the assay on β-Haemolytic Strep. CN10 (β-Haemolytic Strep. CN10, agar); 0.1 µg/mL with Strep. pneumoniae CN33; 0.05 µg/mL in the assay with Staph. aureus Oxford; 0.25 µg/mL in the assay with B. subtilis (B. subtilis, agar).
In the case of `O=C(O)C1=C(Cc2cccnc2)CS[C@@H]2[C@H](NC(=O)[C@H](O)c3ccccc3)C(=O)N12` [Example 3, 7β(D-α-hydroxyphenylacetamido)-3(3-pyridylmethyl)-3-cephem-4-carboxylic acid trifluoroacetate salt], the MIC in the assay on Staph. aureus Russell (Staph. aureus Russell, agar) was found to be 12.5 µg/mL; in the assay on Salmonella typhi, 2.5 µg/mL; in the assay on β-Haemolytic Strep. CN10 (β-Haemolytic Strep. CN10, agar) it was 0.25 µg/mL; with Strep. pneumoniae CN33, 0.5 µg/mL; in the assay with E. coli NCTC 10418, 2.5 µg/mL; with Staph. aureus Oxford it was 0.25 µg/mL. In addition, the MIC was 0.12 µg/mL in the assay with B. subtilis (B. subtilis, agar); 2.5 µg/mL with Klebsiella aerogenes A (setting [1]); 2.5 µg/mL in the assay with Shigella sonnei; 5 µg/mL in the assay on Proteus mirabilis C977.
For `N[C@@H](C(=O)N[C@@H]1C(=O)N2C(C(=O)O)=C(Cc3cccnc3)CS[C@H]12)c1ccccc1` [Example 4, 7β(D-α-aminophenylacetamido)-3(3-pyridylmethyl)-3-cephem-4-carboxylic acid di-trifluoroacetate salt], the MIC stood at 2.5 µg/mL with Staph. aureus Russell (Staph. aureus Russell, agar); 1.25 µg/mL in the assay with Salmonella typhi; 0.25 µg/mL in the assay on β-Haemolytic Strep. CN10 (β-Haemolytic Strep. CN10, agar); 0.5 µg/mL in the assay with Strep. pneumoniae CN33; 2.5 µg/mL in the assay with E. coli NCTC 10418; 0.25 µg/mL in the assay on Staph. aureus Oxford. Further, the MIC is 0.25 µg/mL with B. subtilis (B. subtilis, agar); 2.5 µg/mL in the assay with Klebsiella aerogenes A (setting [1]); 2.5 µg/mL in the assay with Shigella sonnei; 5 µg/mL with Proteus mirabilis C977.
Take `C[n+]1cccc(CC2=C(C(=O)O)N3C(=O)[C@@H](NC(=O)[C@H](O)c4ccccc4)[C@H]3SC2)c1` [Example 5, 7β(D-α-hydroxyphenylacetamide)-3(3-pyridylmethyl)-3-cephem-4-carboxylic acid metho-trifluoroacetate]: the MIC in the assay on Staph. aureus Russell (Staph. aureus Russell, agar) is 5 µg/mL; in the assay with Salmonella typhi, 50 µg/mL; in the assay on β-Haemolytic Strep. CN10 (β-Haemolytic Strep. CN10, agar), 0.02 µg/mL; with Strep. pneumoniae CN33 it was 0.12 µg/mL; in the assay with E. coli NCTC 10418, 50 µg/mL; with Staph. aureus Oxford, 0.12 µg/mL. Further, the MIC amounted to 0.25 µg/mL in the assay with B. subtilis (B. subtilis, agar); 50 µg/mL with Klebsiella aerogenes A (setting [1]); 50 µg/mL with Shigella sonnei; 125 µg/mL in the assay on Proteus mirabilis C977.
Turning to `O=C(O)C(F)(F)F.O=C(O)C1=C(Cc2cccnc2)CS[C@@H]2[C@H](NC(=O)C(C(=O)Oc3ccccc3)c3ccccc3)C(=O)N12` (stereo partly drawn) [Example 6, 7β(α-phenoxycarbonylphenylacetamido)-3(3-pyridylmethyl)-3-cephem-4-carboxylic acid trifluoroacetate], the MIC in the assay with Staph. aureus Russell (Staph. aureus Russell, agar) was 25 µg/mL; with Salmonella typhi, 125 µg/mL; with β-Haemolytic Strep. CN10, 12.5 µg/mL; in the assay on E. coli NCTC 10418, 50 µg/mL; in the assay with Staph. aureus Oxford it was 5 µg/mL; in the assay with B. subtilis, 12.5 µg/mL. In addition, the MIC is 12.5 µg/mL with Shigella sonnei and 25 µg/mL in the assay on Proteus mirabilis C977.
For the compound `N[C@@H](C(=O)N[C@@H]1C(=O)N2C(C(=O)O)=C(Cc3ccccn3)CS[C@H]12)c1ccccc1` [Example 7, 7β(Dα-aminophenylacetamido)-3(2-pyridylmethyl)-3-cephem-4-carboxylic acid di-trifluoroacetate], the MIC with Staph. aureus Russell worked out at 12.5 µg/mL (≈ 29.4 µM); with Salmonella typhi it was 12.5 µg/mL (≈ 29.4 µM); in the assay on β-Haemolytic Strep. CN10 (β-Haemolytic Strep. CN10, agar), 1.25 µg/mL (≈ 2.94 µM); in the assay with E. coli NCTC 10418, 50 µg/mL (≈ 118 µM); with Staph. aureus Oxford it was 1.25 µg/mL (≈ 2.94 µM); in the assay on B. subtilis (B. subtilis, agar), 1.25 µg/mL (≈ 2.94 µM). Also, the MIC is 25 µg/mL (≈ 58.9 µM) in the assay on Shigella sonnei and 125 µg/mL (≈ 294 µM) in the assay with Proteus mirabilis C977.
As to `O=C(O)C1=C(Cc2cccnc2)CS[C@@H]2[C@H](NC(=O)[C@H](NC(=O)N3CCNC3=O)c3ccccc3)C(=O)N12` [Example 8, 7β-[D-2-(1-imidazolidonecarbonylamino)phenylacetamido]-3(3-pyridylmethyl)-3-cephem-4-carboxylic acid trifluoroacetic acid salt], the MIC in the assay with Staph. aureus Russell (Staph. aureus Russell, agar) was 12.5 µg/mL; in the assay with Salmonella typhi, 25 µg/mL; in the assay with β-Haemolytic Strep. CN10 (β-Haemolytic Strep. CN10, agar), 0.12 µg/mL; with Strep. pneumoniae CN33, 0.25 µg/mL; in the assay with E. coli NCTC 10418 it was 25 µg/mL; with Staph. aureus Oxford it was 0.25 µg/mL. Moreover, the MIC in the assay with B. subtilis (B. subtilis, agar) came out at 1.25 µg/mL; in the assay with Klebsiella aerogenes A (setting [1]), 12.5 µg/mL; in the assay with Shigella sonnei it was 25 µg/mL; with Proteus mirabilis C977 it was 50 µg/mL.
Turning to `O=C(COc1ccccc1)N[C@@H]1C(=O)N2C(C(=O)O)=C(Cc3cccnc3)CS[C@H]12` [Example 9, 7β-phenoxyacetamido-3(3-pyridylmethyl)-3-cephem-4-carboxylic acid trifluoroacetic acid salt], the MIC worked out at 0.12 µg/mL in the assay with Staph. aureus Russell (Staph. aureus Russell, agar); 500 µg/mL with Salmonella typhi; 0.12 µg/mL in the assay with β-Haemolytic Strep. CN10 (β-Haemolytic Strep. CN10, agar); 0.12 µg/mL in the assay on Strep. pneumoniae CN33; 500 µg/mL in the assay on E. coli NCTC 10418; 0.02 µg/mL in the assay on Staph. aureus Oxford. In addition, the MIC with B. subtilis (B. subtilis, agar) was found to be 0.25 µg/mL; with Klebsiella aerogenes A (setting [1]) it was 500 µg/mL; with Shigella sonnei, 500 µg/mL; with Proteus mirabilis C977, 125 µg/mL.
For the compound `CCSCC(=O)N[C@@H]1C(=O)N2C(C(=O)O)=C(Cc3cccnc3)CS[C@H]12` [Example 10, 7β-ethylthioacetamido-3(3-pyridylmethyl)-3-cephem-4-carboxylic acid trifluoroacetic acid salt], the MIC with Staph. aureus Russell (Staph. aureus Russell, agar) came out at 1.25 µg/mL; with Salmonella typhi, 50 µg/mL; in the assay with β-Haemolytic Strep. CN10 (β-Haemolytic Strep. CN10, agar), 0.12 µg/mL; in the assay on Strep. pneumoniae CN33 it was 0.25 µg/mL; with E. coli NCTC 10418, 50 µg/mL; with Staph. aureus Oxford, 0.05 µg/mL. Besides, the MIC is 0.5 µg/mL with B. subtilis (B. subtilis, agar); 50 µg/mL in the assay on Klebsiella aerogenes A (setting [1]); 50 µg/mL with Shigella sonnei; 25 µg/mL in the assay on Proteus mirabilis C977.
Consider `N=C(N)N[C@@H](C(=O)N[C@@H]1C(=O)N2C(C(=O)O)=C(Cc3cccnc3)CS[C@H]12)c1ccccc1` [Example 11, 7β(Dα-guanidinophenylacetamido)-3(3-pyridylmethyl)-3-cephem-4-carboxylic acid di-trifluoroacetic acid salt], for which the MIC with Staph. aureus Russell (Staph. aureus Russell, agar) was 2.5 µg/mL; in the assay with Salmonella typhi, more than 100 µg/mL; in the assay on β-Haemolytic Strep. CN10 (β-Haemolytic Strep. CN10, agar) it was 0.1 µg/mL; in the assay on Strep. pneumoniae CN33, 0.1 µg/mL; in the assay with E. coli NCTC 10418, more than 100 µg/mL; with Staph. aureus Oxford, 0.5 µg/mL. Moreover, the MIC is 2.5 µg/mL in the assay on B. subtilis (B. subtilis, agar); more than 100 µg/mL in the assay with Klebsiella aerogenes A (setting [1]); more than 100 µg/mL with Shigella sonnei; more than 100 µg/mL with Proteus mirabilis C977.
As for `C[n+]1cccc(CC2=C(C(=O)O)N3C(=O)[C@@H](NC(=O)[C@H](N)c4ccccc4)[C@H]3SC2)c1` [Example 12, 7β(Dα-aminophenylacetamido)-3(3-pyridylmethyl)-3-cephem-4-carboxylic acid metho-trifluoroacetate trifluoroacetic acid salt], the MIC in the assay on Staph. aureus Russell (Staph. aureus Russell, agar) was determined as 12.5 µg/mL; in the assay on Salmonella typhi, 50 µg/mL; in the assay with β-Haemolytic Strep. CN10 (β-Haemolytic Strep. CN10, agar) it was 0.05 µg/mL; with Strep. pneumoniae CN33, 0.25 µg/mL; with E. coli NCTC 10418, 50 µg/mL; in the assay with Staph. aureus Oxford it was 0.25 µg/mL. Moreover, the MIC in the assay on B. subtilis (B. subtilis, agar) was found to be 0.5 µg/mL; in the assay with Klebsiella aerogenes A (setting [1]), 50 µg/mL; with Shigella sonnei it was 50 µg/mL; in the assay with Proteus mirabilis C977 it was 125 µg/mL.
In the case of `N[C@@H](C(=O)N[C@@H]1C(=O)N2C(C(=O)O)=C(Cc3cccnc3)CS[C@H]12)c1ccc(O)cc1` [Example 13, 7-(2-Amino-2-p-hydroxyphenylacetamido)-4-carboxy-3-(3-pyridylmethyl) ceph-3-em bis-trifluoroacetic acid salt], the MIC in the assay with Staph. aureus Russell (Staph. aureus Russell, agar) was 2.5 µg/mL; in the assay with Salmonella typhi it was 1.25 µg/mL; in the assay on β-Haemolytic Strep. CN10 (β-Haemolytic Strep. CN10, agar), 0.12 µg/mL; in the assay with Strep. pneumoniae CN33, 0.12 µg/mL; with E. coli NCTC 10418 it was 5 µg/mL; in the assay on Staph. aureus Oxford, 0.25 µg/mL. For the same compound, the MIC in the assay on B. subtilis (B. subtilis, agar) is 0.25 µg/mL; in the assay with Klebsiella aerogenes A (Klebsiella aerogenes) it was 1.25 µg/mL; in the assay on Shigella sonnei, 5 µg/mL; with Proteus mirabilis C977, 5 µg/mL.
For the compound `O=C(O)CSCC(=O)N[C@@H]1C(=O)N2C(C(=O)O)=C(Cc3cccnc3)CS[C@H]12` [Example 14, 4-Carboxy-7-carboxymethylthioacetamido-3-(3-pyridylmethyl)ceph-3-em trifluoroacetic acid salt], the MIC in the assay on Staph. aureus Russell (Staph. aureus Russell, agar) is 12.5 µg/mL; in the assay on Salmonella typhi, 50 µg/mL; in the assay with β-Haemolytic Strep. CN10 (β-Haemolytic Strep. CN10, agar), 5 µg/mL; with Strep. pneumoniae CN33, 12.5 µg/mL; in the assay with E. coli NCTC 10418, 50 µg/mL; in the assay on Staph. aureus Oxford, 1.25 µg/mL. Further, the MIC in the assay with B. subtilis (B. subtilis, agar) was 25 µg/mL; in the assay with Klebsiella aerogenes A (setting [1]) it was 25 µg/mL; in the assay with Shigella sonnei, 50 µg/mL; in the assay with Proteus mirabilis C977, 50 µg/mL.
As for `O=C(CSc1ccncc1)N[C@@H]1C(=O)N2C(C(=O)O)=C(Cc3cccnc3)CS[C@H]12` [Example 16, 7β(4-pyridylthioacetamido)-3(3-pyridylmethyl)-3-cephem-4-carboxylic acid di-trifluoroacetic acid salt], the MIC in the assay with Staph. aureus Russell (Staph. aureus Russell, agar) was 1 µg/mL; in the assay with Salmonella typhi it was 10 µg/mL; in the assay with β-Haemolytic Strep. CN10 (β-Haemolytic Strep. CN10, agar) it was less than 0.02 µg/mL; in the assay with Strep. pneumoniae CN33, less than 0.02 µg/mL; in the assay on E. coli NCTC 10418, 25 µg/mL; with Staph. aureus Oxford, less than 0.02 µg/mL. The MIC was less than 0.02 µg/mL with B. subtilis (B. subtilis, agar); 5 µg/mL in the assay with Klebsiella aerogenes A (setting [1]); 25 µg/mL in the assay with Shigella sonnei; 100 µg/mL in the assay on Proteus mirabilis C977.
